From patent publication US20240277890A1, “ANTIMICROBIAL ARTICLES COMPRISING POLYURETHANE” (Amicoat AS, priority 2021, published 2024)
Converted amounts (≈) assume the structure as drawn.

Legend:
[1] = tested on: Salmonella sp - multi-drug resistant clinical isolate; assay: MIC microbroth dilution (CLSI); assay type: cell-based
[2] = tested on: Staphylococcus aureus FDA486; assay: Murine skin infection model, one day topical treatment; assay type: in vivo, mice; details: 2% cream; compared to placebo cream, Fucidin ointment 2% and Bactroban cream 2%
Procedure: The skin of mice was infected with Staphylococcus aureus or Streptococcus pyogenes and subsequently given a total of three treatments at three hourly intervals. Three hours after the last treatment, skin biopsies were collected and the number of colony forming units (CFUs) present in the skin sample was determined. Results are shown in FIGS. 3, 4 and 5 expressed as the number of colony forming units per mouse.

[3] = tested on: Candida albicans ATCC24433 - reference strain
[4] = tested on: Candida tropicalis ATCC750 - reference strain
[5] = tested on: Candida parapsilosis ATCC90018 - reference strain
[6] = tested on: Aspergillus niger - G.R. Micro collection
[7] = tested on: Klebsiella aerogenes - multi-drug resistant clinical isolate
[8] = tested on: Enterobacter sp - antibiotic-susceptible clinical isolate
[9] = tested on: Pseudomonas aeruginosa - multi-drug resistant clinical isolate
[10] = tested on: Stenotrophomonas maltophilia - antibiotic-susceptible clinical isolate
[11] = tested on: Haemophilus influenzae - β-lactamase positive clinical isolate
[12] = tested on: Haemophilus influenzae β-lactamase negative ampicillin-resistant clinical isolate
[13] = tested on: Staphylococcus aureus ATCC 25923 - antibiotic-susceptible control strain
[14] = tested on: Staphylococcus aureus ATCC 43300 - methicillin-resistant control strain
[15] = tested on: Staphylococcus aureus - multi-drug-resistant clinical isolate
[16] = tested on: Staphylococcus saprophyticus - antibiotic susceptible clinical isolate
[17] = tested on: Enterococcus faecalis - ATCC 29212 antibiotic-susceptible control strain; details: ATCC 29212
[18] = tested on: Enterococcus faecalis vancomycin-susceptible clinical isolate
[19] = tested on: Enterococcus faecalis vancomycin-resistant (VanA) clinical isolate
[20] = tested on: Enterococcus faecalis high-level gentamicin-resistant clinical isolate
[21] = tested on: Enterococcus faecium vancomycin-resistant (VanA) clinical isolate
[22] = tested on: Enterococcus faecium vancomycin-resistant (VanB) clinical isolate
[23] = tested on: Streptococcus pyogenes - Macrolide (M-type) resistance clinical isolate
[24] = tested on: Corynebacterium jeikeium - antibiotic-susceptible clinical isolate
[25] = tested on: Corynebacterium jeikeium - multi-drug resistant clinical isolate
[26] = tested on: Listeria monocytogenes - antibiotic-susceptible clinical isolate
[27] = tested on: EMRSA16 Staphylococcus aureus (MRSA) - SSCmec type 2; details: EMRSA16 - SSCmec type 2
[28] = tested on: EMRSA1 Staphylococcus aureus (MRSA) - SSCmec type 3; details: EMRSA1 - SSCmec type 3
[29] = tested on: EMRSA15 Staphylococcus aureus (MRSA) - SSCmec type 4; details: EMRSA15 - SSCmec type 4
[30] = tested on: Streptococcus agalactiae - antibiotic-susceptible clinical isolate
[31] = tested on: Group C Streptococcus - antibiotic-susceptible clinical isolate
[32] = tested on: Staphylococcus aureus, strain ATCC 25923; details: ATCC 25923

## CCCCCCNC(=O)[C@H](CCCNC(=N)N)NC(=O)[C@H](Cc1c(C(C)(C)C)[nH]c2c(C(C)(C)C)cc(C(C)(C)C)cc12)NC(=O)[C@@H](N)CCCNC(=N)N [Compound 8]
[1]
  MIC: 8 µg/mL (≈ 10.4 µM)
[2]
  number of CFUs in skin biopsy: more effective at reducing the number of CFUs than the placebo and fucidin or bactroban
[3]
  MIC: 8 µg/mL (≈ 10.4 µM)
[4]
  MIC: 4 µg/mL (≈ 5.21 µM)
[5]
  MIC: 8 µg/mL (≈ 10.4 µM)
[6]
  MIC: 4 µg/mL (≈ 5.21 µM)
[7]
  MIC: 8 µg/mL (≈ 10.4 µM)
[8]
  MIC: 8 µg/mL (≈ 10.4 µM)
[9]
  MIC: 4 µg/mL (≈ 5.21 µM)
[10]
  MIC: 4 µg/mL (≈ 5.21 µM)
[11]
  MIC: 4 µg/mL (≈ 5.21 µM)
[12]
  MIC: 8 µg/mL (≈ 10.4 µM)
[13]
  MIC: 4 µg/mL (≈ 5.21 µM)
[14]
  MIC: 4 µg/mL (≈ 5.21 µM)
[15]
  MIC: 4 µg/mL (≈ 5.21 µM)
[16]
  MIC: 0.5 µg/mL (≈ 0.651 µM)
[17]
  MIC: 4 µg/mL (≈ 5.21 µM)
[18]
  MIC: 4 µg/mL (≈ 5.21 µM)
[19]
  MIC: 4 µg/mL (≈ 5.21 µM)
[20]
  MIC: 8 µg/mL (≈ 10.4 µM)
[21]
  MIC: 4 µg/mL (≈ 5.21 µM)
[22]
  MIC: 4 µg/mL (≈ 5.21 µM)
[23]
  MIC: 8 µg/mL (≈ 10.4 µM)
[24]
  MIC: 4 µg/mL (≈ 5.21 µM)
[25]
  MIC: 2 µg/mL (≈ 2.6 µM)
[26]
  MIC: 8 µg/mL (≈ 10.4 µM)
[27]
  MIC: 4 µg/mL (≈ 5.21 µM)
[28]
  MIC: 4 µg/mL (≈ 5.21 µM)
[29]
  MIC: 4 µg/mL (≈ 5.21 µM)
[30]
  MIC: 8 µg/mL (≈ 10.4 µM)
[31]
  MIC: 8 µg/mL (≈ 10.4 µM)
[32]
  S. aureus (MIC): 2 µg/mL
C. albicans
  C. albicans (MIC): 5 µg/mL
P. aeruginosa
  P. aeruginosa (MIC): 5 µg/mL
